Tested on: T1, SulA1
T1 construct: forward primer encodes MVSSSPA (translated here)
Test: GalNAc release by HPAEC-PAD, Michaelis-Menten nonlinear fit
Format: biochemical, Arthrobacter sp. MAT3885
Details: pH 5.5, 40 °C, 30 min, 0-20 mM substrate; 100 mM acetate buffer; unit not printed beside the value, taken from the mM axis of Figure 9B

Km: 6.94 ± 0.053 mM
SMILES: CC(=O)N[C@H]1C(O)O[C@H](CO)[C@H](OS(=O)(=O)O)[C@@H]1O (stereo partly drawn) [GalNAc4S, N-Acetyl-D-galactosamine-4-sulfate]

From PMC10972148, “Cloning and Characterization of a Novel N-Acetyl-D-galactosamine-4-O-sulfate Sulfatase, SulA1, from a Marine Arthrobacter Strain” (Marine Drugs, 2024)
